Read-outs that look alike come from different tables or passages of the source. *1 amine or outer side, *2 acyl side, *3 side chain or, on linkers, in order; H or OH if unused. Where a SMILES comes first, the peptide text is derived from it. Side-chain parts run from the residue outwards. [ ]: non-standard residue; d: D form. The star is where a group is joined. C20 diacid = O=C(O)CCCCCCCCCCCCCCCCCCC(=O)*; γGlu = O=C(O)[C@H](CCC(=O)[*:2])N[*:1]; AEEA = NCCOCCOCC(=O)O; Aib = CC(C)(N)C(=O)O
What was measured:
human GLP-1 R = molecular target: T1, human GLP-1 R (Homo sapiens, UniProt P43220); assay: Human GLP-1 receptor (GLP-1 R) activity assay, cAMP induction (AlphaScreen) in HEK293 cells; assay type: cell-based
T1 construct: expressed in transfected cells
How it was run: (§1)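 Stable HEK293 clones expressing human GIP R or GLP-1 R, seeded 1 day before; cells washed in Tyrode's buffer (10 mM HEPES, pH 7.4), stimulated, then lysed. cAMP measured by AlphaScreen bead competition (1 h, room temperature, dark). EC50 = concentration giving half-maximal cAMP elevation, from curves of absolute cAMP (nM) vs log concentration.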

human GIP R = molecular target: T2, human GIP R (Homo sapiens, UniProt P48546); assay: Human GIP receptor (GIP R) activity assay, cAMP induction (AlphaScreen) in HEK293 cells; assay type: cell-based; details: read-out: hGIP-R cAMP EC50 average value
T2 construct: expressed in transfected cells
T2 sequence (P48546 22-466): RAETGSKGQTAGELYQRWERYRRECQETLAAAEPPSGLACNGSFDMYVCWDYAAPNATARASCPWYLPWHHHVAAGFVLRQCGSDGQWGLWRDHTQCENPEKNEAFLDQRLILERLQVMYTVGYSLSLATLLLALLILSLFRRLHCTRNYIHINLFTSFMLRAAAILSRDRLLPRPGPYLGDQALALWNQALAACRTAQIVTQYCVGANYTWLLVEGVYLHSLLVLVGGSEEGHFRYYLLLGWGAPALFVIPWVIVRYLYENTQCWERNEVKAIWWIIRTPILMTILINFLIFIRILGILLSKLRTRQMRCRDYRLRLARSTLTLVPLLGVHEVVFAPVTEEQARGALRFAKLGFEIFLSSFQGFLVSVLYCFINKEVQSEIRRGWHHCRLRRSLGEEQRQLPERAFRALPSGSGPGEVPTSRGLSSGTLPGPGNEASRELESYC
How it was run: as §1

[1] = Pharmacokinetics of selected compounds in mice; assay type: in vivo, C57BL/6J mice; details: male, C57BL/6J, mouse, plasma; for bioavailability: subcutaneous, AUCinf (s.c.)/AUCinf (i.v.)x100, values marked * capped to 100%
Method: Pharmacokinetics of Selected Compounds in Mice
C57BL/6J mice (males with a body weight of approximately 25 g) were given either a single subcutaneous (s.c.) bolus or a single intravenous (i.v.) bolus of each peptide to be tested.
Following s.c. administration of the selected compounds (50, 100 or 200 nmol/kg), blood samples were drawn at 8 (eight) timepoints up to 72 hours post-dose. Following i.v. administration of the selected compounds (50, 100 or 200 nmol/kg), blood samples were drawn at 8 (eight) timepoints up to 48 hours post-dose. Blood samples were drawn by sublingual bleeding. The dosing vehicle was a phosphate buffer containing mannitol (pH 7.5).
At each sampling time point, samples from two mice were drawn, i.e. 16 mice were included for each compound and each administration route. The mice were euthanized immediately after blood sampling by cervical dislocation. Plasma samples were analyzed after solid phase extraction (SPE) or protein precipitation followed by liquid chromatography mass spectrometry (LC-MS/MS). Mean plasma concentrations were used for calculation of the pharmacokinetic parameters using the non-compartmental approach in Phoenix WinNonlin 6.3. Plasma terminal elimination half-life (T½) was determined as […] where λz is the magnitude of the slope of the log linear regression of the log concentration versus time profile during the terminal phase. Bioavailability was determined as AUCinf (s.c.)/AUCinf (i.v.)×100, where AUCinf is the area under the plasma concentration−time curve extrapolated to infinity (AUCinf=AUClast+Clast/λz, where Clast is the last observed plasma concentration). Tmax is the post-dose time where the maximal plasma concentration was observed.

[2] = molecular target: T3, human GIP receptor (human) (UniProt P48546); assay: cell-based or functional assay
T3 sequence: T2 sequence (P48546 22-466)

[3] = Table 2, HEK293 cells expressing human GLP-1 R, read-out: hGLP1-R cAMP EC50 average value
[4] = Table 3, most comprehensive data, read-out: hGLP-1-R cAMP EC50 average value
[5] = Table 2, HEK293 cells expressing human GIP R
[6] = Table 3, most comprehensive data
[7] = iv, single i.v. bolus, read-out: T½ terminal elimination half-life, i.v. (converted)
[8] = sc, single s.c. bolus, read-out: T½ terminal elimination half-life, s.c. (converted)

T1 sequence (P43220 24-463): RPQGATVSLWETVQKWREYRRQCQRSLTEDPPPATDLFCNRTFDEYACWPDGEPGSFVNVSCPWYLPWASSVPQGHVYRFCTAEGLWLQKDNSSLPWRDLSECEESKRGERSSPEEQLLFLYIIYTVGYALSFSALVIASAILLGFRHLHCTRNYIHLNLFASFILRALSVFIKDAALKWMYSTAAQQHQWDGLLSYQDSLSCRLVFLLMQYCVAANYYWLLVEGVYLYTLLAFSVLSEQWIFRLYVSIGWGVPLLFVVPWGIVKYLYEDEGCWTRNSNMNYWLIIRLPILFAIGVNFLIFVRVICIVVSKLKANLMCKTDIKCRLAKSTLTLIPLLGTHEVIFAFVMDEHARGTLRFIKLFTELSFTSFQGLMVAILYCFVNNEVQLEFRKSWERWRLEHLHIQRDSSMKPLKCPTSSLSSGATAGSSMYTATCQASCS

Compound | EC50 (human GLP-1 R; [3]) [pM] | EC50 (human GLP-1 R; [4]) [pM] | EC50 (human GIP R; [5]) [pM] | EC50 (human GIP R; [6]) [pM] | half-life [1, 7] [h] | bioavailability [1] [%] | Tmax ([1]; sc, single s.c. bolus) [h] | half-life [1, 8] [h] | EC50, hGIP-R cAMP [2] [pM]
CC[C@H](C)[C@H](NC(=O)[C@H](CO)NC(=O)[C@H](Cc1ccc(O)cc1)NC(=O)[C@H](CC(=O)O)NC(=O)[C@H](CO)NC(=O)[C@@H](NC(=O)[C@H](Cc1ccccc1)NC(=O)[C@@H](NC(=O)CNC(=O)[C@H](CCC(=O)O)NC(=O)[C@@H](C)NC(=O)[C@@H](N)Cc1ccc(O)cc1)[C@@H](C)O)[C@@H](C)O)C(=O)N[C@@H](Cc1ccc(O)cc1)C(=O)N[C@@H](CC(C)C)C(=O)N[C@@H](CC(=O)O)C(=O)N[C@@H](CCCCN)C(=O)N[C@@H](CCCCNC(=O)COCCOCCNC(=O)COCCOCCNC(=O)CC[C@H](NC(=O)CCCCCCCCCCCCCCCCCCC(=O)O)C(=O)O)C(=O)N[C@@H](C)C(=O)N[C@@H](CCC(N)=O)C(=O)N[C@@H](CCCNC(=N)N)C(=O)N[C@@H](C)C(=O)N[C@@H](Cc1ccccc1)C(=O)N[C@H](C(=O)N[C@@H](CCC(=O)O)C(=O)N[C@@H](Cc1c[nH]c2ccccc12)C(=O)N[C@@H](CC(C)C)C(=O)N[C@@H](CC(C)C)C(=O)N[C@@H](C)C(=O)N[C@@H](CCC(N)=O)C(=O)NCC(=O)N1CCC[C@H]1C(=O)N[C@@H](CO)C(=O)N[C@@H](CO)C(=O)NCC(=O)N[C@@H](C)C(=O)N1CCC[C@H]1C(=O)N1CCC[C@H]1C(=O)N1CCC[C@H]1C(=O)N[C@@H](CO)C(N)=O)C(C)C [Compound 30] (H-Y[dA]EGTFTSDYSIYLDKK([AEEA-AEEA-γGlu-C20 diacid])AQRAFVEWLLAQGPSSGAPPPS-NH2) | 28 | 35 | 15 | 17 | 17.1 | 83 | 8 | 15.9 | –
CC[C@H](C)[C@H](NC(=O)[C@H](CO)NC(=O)[C@H](Cc1ccc(O)cc1)NC(=O)[C@H](CC(=O)O)NC(=O)[C@H](CO)NC(=O)[C@@H](NC(=O)[C@H](Cc1ccccc1)NC(=O)[C@@H](NC(=O)CNC(=O)[C@H](CCC(=O)O)NC(=O)C(C)(C)NC(=O)[C@@H](N)Cc1ccc(O)cc1)[C@@H](C)O)[C@@H](C)O)C(=O)N[C@@H](C)C(=O)N[C@@H](CC(C)C)C(=O)N[C@@H](CCC(=O)O)C(=O)N[C@@H](CCCCN)C(=O)N[C@@H](CCCCNC(=O)COCCOCCNC(=O)COCCOCCNC(=O)CC[C@H](NC(=O)CCCCCCCCCCCCCCCCCCC(=O)O)C(=O)O)C(=O)N[C@@H](C)C(=O)N[C@@H](CCC(N)=O)C(=O)N[C@@H](CCCNC(=N)N)C(=O)N[C@@H](C)C(=O)N[C@@H](Cc1ccccc1)C(=O)N[C@H](C(=O)N[C@@H](CCC(=O)O)C(=O)N[C@@H](Cc1c[nH]c2ccccc12)C(=O)N[C@@H](CC(C)C)C(=O)N[C@@H](CC(C)C)C(=O)N[C@@H](C)C(=O)N[C@@H](CCC(N)=O)C(=O)NCC(=O)N1CCC[C@H]1C(=O)N[C@@H](CO)C(=O)N[C@@H](CO)C(=O)NCC(=O)N[C@@H](C)C(=O)N1CCC[C@H]1C(=O)N1CCC[C@H]1C(=O)N1CCC[C@H]1C(=O)N[C@@H](CO)C(N)=O)C(C)C [Compound 31] (H-Y[Aib]EGTFTSDYSIALEKK([AEEA-AEEA-γGlu-C20 diacid])AQRAFVEWLLAQGPSSGAPPPS-NH2) | 16 | 17 | 7 | 8 | 11.7 | 88 | 8 | 15.1 | –
CC[C@H](C)[C@H](NC(=O)[C@H](CO)NC(=O)[C@H](Cc1ccc(O)cc1)NC(=O)[C@H](CC(=O)O)NC(=O)[C@H](CO)NC(=O)[C@@H](NC(=O)[C@H](Cc1ccccc1)NC(=O)[C@@H](NC(=O)CNC(=O)[C@H](CCC(=O)O)NC(=O)[C@@H](C)NC(=O)[C@@H](N)Cc1ccc(O)cc1)[C@@H](C)O)[C@@H](C)O)C(=O)N[C@@H](C)C(=O)N[C@@H](CC(C)C)C(=O)N[C@@H](CCC(=O)O)C(=O)N[C@@H](CCCCN)C(=O)N[C@@H](CCCCNC(=O)COCCOCCNC(=O)COCCOCCNC(=O)CC[C@H](NC(=O)CCCCCCCCCCCCCCCCCCC(=O)O)C(=O)O)C(=O)N[C@@H](C)C(=O)N[C@@H](CCC(N)=O)C(=O)N[C@@H](CCCNC(=N)N)C(=O)N[C@@H](C)C(=O)N[C@@H](Cc1ccccc1)C(=O)N[C@H](C(=O)N[C@@H](CCC(=O)O)C(=O)N[C@@H](Cc1c[nH]c2ccccc12)C(=O)N[C@@H](CC(C)C)C(=O)N[C@@H](CC(C)C)C(=O)N[C@@H](C)C(=O)N[C@@H](CCC(N)=O)C(=O)NCC(=O)N1CCC[C@H]1C(=O)N[C@@H](CO)C(=O)N[C@@H](CO)C(=O)NCC(=O)N[C@@H](C)C(=O)N1CCC[C@H]1C(=O)N1CCC[C@H]1C(=O)N1CCC[C@H]1C(=O)N[C@@H](CO)C(N)=O)C(C)C [Compound 32] (H-Y[dA]EGTFTSDYSIALEKK([AEEA-AEEA-γGlu-C20 diacid])AQRAFVEWLLAQGPSSGAPPPS-NH2) | 40 | 56 | 16 | 18 | 17.4 | 100 | 8 | 11.8 | –
CC[C@H](C)[C@H](NC(=O)[C@H](CO)NC(=O)[C@H](CC(C)C)NC(=O)[C@H](CC(=O)O)NC(=O)[C@H](CO)NC(=O)[C@@H](NC(=O)[C@H](Cc1ccccc1)NC(=O)[C@@H](NC(=O)CNC(=O)[C@H](CCC(=O)O)NC(=O)C(C)(C)NC(=O)[C@@H](N)Cc1ccc(O)cc1)[C@@H](C)O)[C@@H](C)O)C(=O)N[C@@H](C)C(=O)N[C@@H](CC(C)C)C(=O)N[C@@H](CCC(=O)O)C(=O)N[C@@H](CCCCN)C(=O)N[C@@H](CCCCNC(=O)COCCOCCNC(=O)COCCOCCNC(=O)CC[C@H](NC(=O)CCCCCCCCCCCCCCCCCCC(=O)O)C(=O)O)C(=O)N[C@@H](C)C(=O)N[C@@H](CCC(N)=O)C(=O)N[C@@H](CCCNC(=N)N)C(=O)N[C@@H](C)C(=O)N[C@@H](Cc1ccccc1)C(=O)N[C@H](C(=O)N[C@@H](CCC(=O)O)C(=O)N[C@@H](Cc1c[nH]c2ccccc12)C(=O)N[C@@H](CC(C)C)C(=O)N[C@@H](CC(C)C)C(=O)N[C@@H](C)C(=O)N[C@@H](CCC(N)=O)C(=O)N[C@@H](CCCCN)C(=O)N1CCC[C@H]1C(=O)N[C@@H](CO)C(=O)N[C@@H](CO)C(=O)NCC(=O)N[C@@H](C)C(=O)N1CCC[C@H]1C(=O)N1CCC[C@H]1C(=O)N1CCC[C@H]1C(=O)N[C@@H](CO)C(N)=O)C(C)C [Compound 34] (H-Y[Aib]EGTFTSDLSIALEKK([AEEA-AEEA-γGlu-C20 diacid])AQRAFVEWLLAQKPSSGAPPPS-NH2) | 15 | – | 12 | – | 14.9 | 79 | 8 | 17.1 | –
hGIP (from UniProt P09681 52-93) (ligand) | – | – | – | – | – | – | – | – | 3
hGLP-1 (from UniProt P01275 92-128) (ligand) | – | – | – | – | – | – | – | – | > 10000
